Here are results for eight compounds from PubChem BioAssay (NCI).

Some test systems named below: CCRF-CEM leukemia; HL-60(TB) leukemia; HOP-62 NSCLC; HT29 colon; MDA-MB-231 breast; NCI-H23 lung; NCI-H522 lung; PC-3 prostate; SK-MEL-28 melanoma; SNB-75 CNS.
Common to all, as to test: NCI-60 cell line screen, 48 h

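1) Cells in 96-well plates. 2) Compound, 48 h, 5 concentrations. 3) Linear interpolation between surrounding doses. 4) Unreached endpoint = highest concentration. GI50 = concentration required for 50% inhibition of growth. TGI: concentration producing complete growth inhibition.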 Some results are limits rather than exact numbers.

`CN1CCN(CCOc2ccc(-c3cnc4c(-c5cccc(F)c5)cnn4c3)cc2)CC1`: the GI50 with CCRF-CEM leukemia was 2.11 µM; in the test on HL-60(TB) leukemia, 2.1 µM; in the test with HOP-62 NSCLC it was 1.72 µM; in the test with HT29 colon it was 1.51 µM; with MDA-MB-231 breast, 1.71 µM; with NCI-H23 lung it was 1.87 µM. Besides, the GI50 in the test on NCI-H522 lung was 1.73 µM; with PC-3 prostate, 1.92 µM; with SK-MEL-28 melanoma, 2.07 µM; in the test with SNB-75 CNS, 1.39 µM. Further, the TGI in the test with CCRF-CEM leukemia turned out to be 5.23 µM; in the test with HL-60(TB) leukemia, 4.36 µM; in the test on HOP-62 NSCLC it was 3.73 µM; in the test on HT29 colon, 3.32 µM; in the test with MDA-MB-231 breast, 3.55 µM; in the test on NCI-H23 lung, 3.72 µM. Moreover, the TGI in the test with NCI-H522 lung was 3.65 µM; in the test with PC-3 prostate it was 4.39 µM; with SK-MEL-28 melanoma it was 4.54 µM; in the test on SNB-75 CNS, 3.53 µM.

With `CCOc1ccc2c(c1)C(=O)c1c-2n(CCCBr)c(=O)c2cc([N+](=O)[O-])ccc12`, the GI50 in the test on CCRF-CEM leukemia is 3.74 µM; in the test with HL-60(TB) leukemia, 64.5 µM; in the test on HOP-62 NSCLC, 5.81 µM; in the test on HT29 colon, above 100 µM; in the test on MDA-MB-231 breast, above 100 µM; in the test on NCI-H23 lung, 7.14 µM. For the same compound, the GI50 is 5.74 µM in the test with NCI-H522 lung, above 100 µM in the test with PC-3 prostate, 88.8 µM in the test with SK-MEL-28 melanoma and 33.9 µM in the test on SNB-75 CNS. Further, the TGI in the test on CCRF-CEM leukemia, with HL-60(TB) leukemia, with HOP-62 NSCLC, with HT29 colon, in the test with MDA-MB-231 breast and in the test on NCI-H23 lung was above 100 µM throughout. Besides, the TGI in the test on NCI-H522 lung is 72.8 µM; with PC-3 prostate, above 100 µM; with SK-MEL-28 melanoma, above 100 µM; with SNB-75 CNS, above 100 µM.

As to `CCCCCCCC(=O)OCCCC1[C@]2(C)CC[C@@]3(C)C([C@H](C)CCC=C(C)C)CC[C@]3(C)C2CC[C@]12OC2(C)C` (stereo not given in full), the GI50 with CCRF-CEM leukemia is 28.4 µM; in the test on HL-60(TB) leukemia, 28.5 µM; in the test with HOP-62 NSCLC, above 100 µM; with HT29 colon, 42.3 µM; with MDA-MB-231 breast, 10.8 µM; in the test on NCI-H23 lung, 23.1 µM. Moreover, the GI50 with NCI-H522 lung is 35.1 µM; with PC-3 prostate it was 30.2 µM; in the test with SK-MEL-28 melanoma, 42.4 µM; in the test on SNB-75 CNS, above 100 µM. The TGI is 69.1 µM with CCRF-CEM leukemia; 67.4 µM in the test on HL-60(TB) leukemia; above 100 µM in the test with HOP-62 NSCLC; above 100 µM in the test with HT29 colon; 34.6 µM in the test on MDA-MB-231 breast; 61.7 µM in the test with NCI-H23 lung. Besides, the TGI with NCI-H522 lung, with PC-3 prostate, with SK-MEL-28 melanoma and in the test with SNB-75 CNS was above 100 µM in each case.

`O=C(O)/C=C\C(=O)Nc1ccccn1`: the TGI with CCRF-CEM leukemia, in the test on HL-60(TB) leukemia, in the test with HOP-62 NSCLC, in the test with HT29 colon, with MDA-MB-231 breast and with NCI-H23 lung was above 100 µM in each case. For the same compound, the TGI with NCI-H522 lung, in the test on PC-3 prostate, with SK-MEL-28 melanoma and in the test on SNB-75 CNS was above 100 µM throughout.

For `CN(C)c1ccc(/C=C2\N=C(c3ccccc3)N(c3cc(C(F)(F)F)ccc3Cl)C2=O)cc1`, the GI50 in the test with CCRF-CEM leukemia, with HL-60(TB) leukemia, in the test with HOP-62 NSCLC, with HT29 colon, with MDA-MB-231 breast and in the test on NCI-H23 lung was above 100 µM throughout. For the same compound, the GI50 in the test with NCI-H522 lung, in the test on PC-3 prostate, with SK-MEL-28 melanoma and in the test with SNB-75 CNS was above 100 µM each time. For the same compound, the TGI in the test on CCRF-CEM leukemia, in the test with HL-60(TB) leukemia, in the test with HOP-62 NSCLC, with HT29 colon, in the test on MDA-MB-231 breast and in the test on NCI-H23 lung was above 100 µM throughout. In addition, the TGI in the test with NCI-H522 lung, in the test on PC-3 prostate, with SK-MEL-28 melanoma and with SNB-75 CNS was above 100 µM each time.

Regarding `C#CCNC(=S)N/N=C(\C)c1ccccn1`, the GI50 in the test on CCRF-CEM leukemia was 0.0677 µM; with HL-60(TB) leukemia it was 0.084 µM; in the test on HOP-62 NSCLC, 1.25 µM; in the test with HT29 colon, 0.234 µM; with MDA-MB-231 breast it was 0.292 µM; with NCI-H23 lung, 0.208 µM. The GI50 in the test on NCI-H522 lung is 3.33 µM; with PC-3 prostate, 0.393 µM; with SK-MEL-28 melanoma, 2.32 µM; in the test on SNB-75 CNS, 0.943 µM. The TGI was above 100 µM with CCRF-CEM leukemia; 0.36 µM with HL-60(TB) leukemia; 16 µM in the test on HOP-62 NSCLC; above 100 µM with HT29 colon; above 100 µM with MDA-MB-231 breast; above 100 µM with NCI-H23 lung. Further, the TGI was above 100 µM in the test with NCI-H522 lung, above 100 µM with PC-3 prostate, above 100 µM in the test on SK-MEL-28 melanoma and above 23.7 µM in the test with SNB-75 CNS.

Turning to `CNNC(=N\S(=O)(=O)c1cc(C)c(Cl)cc1SCc1ccccc1)/N=C/c1ccc([N+](=O)[O-])s1`, the GI50 in the test with CCRF-CEM leukemia is above 100 µM; in the test on HL-60(TB) leukemia, above 100 µM; in the test on HOP-62 NSCLC, above 100 µM; with HT29 colon, 27.4 µM; with MDA-MB-231 breast it was above 56.7 µM; with NCI-H23 lung, above 100 µM. For the same compound, the GI50 in the test with NCI-H522 lung, with PC-3 prostate, in the test on SK-MEL-28 melanoma and in the test on SNB-75 CNS was above 100 µM each time. Besides, the TGI in the test on CCRF-CEM leukemia, with HL-60(TB) leukemia, in the test with HOP-62 NSCLC, with HT29 colon, in the test with MDA-MB-231 breast and in the test with NCI-H23 lung was above 100 µM in each case. The TGI in the test on NCI-H522 lung, in the test on PC-3 prostate, in the test on SK-MEL-28 melanoma and in the test on SNB-75 CNS was above 100 µM throughout.

Consider `O=[N+]([O-])c1nccn1CC(O)CN1CCCCC1` (stereo not given), for which the TGI in the test with CCRF-CEM leukemia, in the test with HL-60(TB) leukemia, in the test on HOP-62 NSCLC, in the test with HT29 colon, with MDA-MB-231 breast and with NCI-H23 lung was above 100 µM in each case. In addition, the TGI in the test on NCI-H522 lung, with PC-3 prostate, in the test on SK-MEL-28 melanoma and in the test on SNB-75 CNS was above 100 µM in each case.
